Assay results as given in patent publication US7494780B2, “Epididymis-specific defensin for evaluating and regulating male fertility” (The Chinese University of Hong Kong, priority 2004, dated 2009).

Tested on: Bin1b
Assay: In vivo antisense oligonucleotide treatment, injection into mid-caput epididymis
Parameters: species or system rat
Experimental: Sperm motility analysis. For the motility analysis, we used an HTM-IVOS system (version 10.8, Hamilton-Thorn Research) with the following settings: objective, ×4; minimum cell size, six pixels; minimum contrast, 65; minimum static contrast, 30; low VAP cut-off, 30.0; low VSL cut-off, 20.0; threshold straightness, 50%; static head size, 0.29-10.0; static head intensity, 0.29-1.11; magnification, 0.82. Sixty frames were acquired at a frame rate of 60 Hz. At least 200 tracks were measured for each specimen at 37° C. We recorded at least 30 points for each tract. The playback function of the system was used to check its accuracy.
Flow cytometry analysis. Rat sperm were stained with Bin1b polyclonal antibody at a final concentration of 1:200. In control samples, the antibody was replaced by preimmune serum at the same concentration. After incubation at 4° C. overnight, the sperm were washed twice with PBS containing 4 mg ml^−1 bovine serum albumin and incubated for 45 min at 22° C. with the secondary antibody, fluorescein isothiocyanate (FITC)-conjugated goat antibody against rabbit IgG (Zymed Laboratories) at a dilution of 1:50. After three washes, the sperm were analysed on a flow cytometer (Beckman Coulter). We analyzed 10,000 individual sperm per sample for FITC fluorescence emissions. A negative control of sperm stained by normal rabbit IgG was used to set the threshold for specific Bin1b staining. The percentage of sperm specifically stained for Bin1b was obtained by subtracting background fluorescence.
In vivo antisense oligonucleotide treatment. The skin covering the testis of a male Sprague-Dawley rat (aged >3 months) was cut open under anaesthesia and 30 μl of Bin1b antisense oligonucleotide (5′-[…]-3′; SEQ ID NO:3) or control sense oligonucleotide (5′-[…]-3′; SEQ ID NO:4) solution (20 μg ml^−) was injected into the proximal side of the mid-caput epididymis. The sperm were collected for assessment 48 h after injection. The use of animals in this project was authorized by the Animal Research Ethics Committee of The Chinese University of Hong Kong.

[1] = versus sense oligonucleotide control, 48 h after injection

**Q.** “5′-AGAGTAACAAAACCTTCATG-3′ (listed as DNA, chemistry not given here) [antisense Bin1b oligonucleotide]” was tested. Which “expression of Bin1b messenger RNA in the caput epididymis (semiquantitative RT-PCR)” value (20 μg ml^−1, versus sense control) did it give?
**A.** The value was “significantly suppressed”.

**Q.** And the “Bin1b binding to sperm collected in the distal caput region (flow cytometry)” value (versus sense control)?
**A.** The value was “considerable reduction”.

**Q.** What about the “motility of sperm from the distal caput epididymis” value [1] of the same substance?
**A.** Its value is “reduced sperm motility”.

**Q.** And the “progressive movement of sperm from the distal caput epididymis” value [1]?
**A.** The value was “significantly lower”.

**Q.** What about the “motility of sperm from the distal caput epididymis” value (versus sense oligonucleotide control, 48 h after injection, listed as Bin1b antisense oligonucleotide) of the same substance?
**A.** Its value is “significantly lower”.
